Read-outs that look alike come from different tables or passages of the source.
Experiments:
[1] = tested on: KMS12-BM (NIK WT) multiple myeloma cells; assay: Antiproliferative activity on KMS12-BM multiple myeloma cells (CellTiter-Glo, 96 hr), Biological Assay C; format: cell-based, human; settings: averaged values, read-out: KMS-12 Proliferation inhibition (IC50 (nM))
Method: (§1) Determination of Antiproliferative Activity on JJN-3 (NIK Translocated) and KMS12-BM (NIK WT) Multiple Myeloma Cells
(§2) All compounds tested were dissolved in DMSO and further dilutions were made in culture medium. Final DMSO concentration was 0.3% (v/v) in cell proliferation assays. Viability was assessed using CellTiter-Glo cell viability assay kit (Promega). The human JJN-3 and KMS12-BM cells (DSMZ) were cultured in RPMI 1640 medium supplemented with 2 mM L-glutamine, and 10% fetal calf serum (PAA). Cells were routinely kept as suspension cells at 37° C. in a humidified 5% CO2 atmosphere. Cells were passaged at a seeding density of 0.2×10^6/ml twice a week. Cells were seeded in black tissue culture treated 96-well plates (Perkin Elmer). Densities used for plating ranged from 15000 (JJN3) to 20000 (KMS12BM) cells per well in a total volume of 135 μl medium. Drugs and/or solvents were added (15 μl) to a final volume of 150 μl. Following 96 hr of treatment, plates were removed from the incubator and allowed to equilibrate to room temperature for approx 10 min. 75 μl CellTiter-Glo reagent was added to each well that was then covered (Perkin Elmer Topseal) and shaken on plate shaker for 10 min. Luminescence was measured on a HTS Topcount (Perkin Elmer).
(§3) Within an experiment, the results for each treatment were the mean of 2 replicate wells. For initial screening purposes, compounds were tested using a 9 point dilution curve (serial 1:3 dilutions). For each experiment, controls (containing no drug) and a blank incubation (containing cells read at the time of compound addition) were run in parallel. The blank value was subtracted from all control and sample values. For each sample, the mean value for cell growth (in relative light units) was expressed as a percentage of the mean value for cell growth of the control.

[2] = target: recombinant human NF-kappaB-inducing kinase (NIK/MAP3K14) (Homo sapiens, UniProt Q99558); assay: Inhibition of auto-phosphorylation of recombinant human NIK/MAP3K14 activity (AlphaScreen), Biological Assay A; format: biochemical; settings: averaged values over all measurements on all batches
recombinant human NF-kappaB-inducing kinase (NIK/MAP3K14), sequence (Q99558 whole entry): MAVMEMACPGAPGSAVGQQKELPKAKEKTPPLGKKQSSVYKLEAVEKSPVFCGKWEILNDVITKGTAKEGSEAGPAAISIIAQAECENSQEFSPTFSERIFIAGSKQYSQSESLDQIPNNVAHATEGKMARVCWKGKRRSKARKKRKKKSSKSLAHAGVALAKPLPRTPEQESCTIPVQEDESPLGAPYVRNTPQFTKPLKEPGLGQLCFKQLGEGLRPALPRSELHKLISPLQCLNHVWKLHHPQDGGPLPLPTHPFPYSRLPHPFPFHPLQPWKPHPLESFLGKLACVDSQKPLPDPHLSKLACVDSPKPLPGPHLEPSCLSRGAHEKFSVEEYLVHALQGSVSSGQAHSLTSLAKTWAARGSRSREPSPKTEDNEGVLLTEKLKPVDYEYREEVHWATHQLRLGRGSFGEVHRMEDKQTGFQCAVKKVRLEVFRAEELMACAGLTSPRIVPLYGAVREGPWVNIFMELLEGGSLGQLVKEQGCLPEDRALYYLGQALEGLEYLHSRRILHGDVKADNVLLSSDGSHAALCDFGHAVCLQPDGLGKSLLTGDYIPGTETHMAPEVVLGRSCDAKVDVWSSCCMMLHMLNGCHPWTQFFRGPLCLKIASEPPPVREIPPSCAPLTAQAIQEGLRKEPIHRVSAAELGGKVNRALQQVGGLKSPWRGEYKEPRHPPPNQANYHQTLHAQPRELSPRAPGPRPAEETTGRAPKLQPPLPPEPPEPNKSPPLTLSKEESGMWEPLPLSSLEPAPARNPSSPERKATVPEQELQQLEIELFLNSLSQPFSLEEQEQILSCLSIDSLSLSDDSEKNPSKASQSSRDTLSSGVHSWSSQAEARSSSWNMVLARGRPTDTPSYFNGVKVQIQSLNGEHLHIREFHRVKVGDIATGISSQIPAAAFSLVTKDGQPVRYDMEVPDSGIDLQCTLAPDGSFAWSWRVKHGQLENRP
Method: Inhibition of Auto-Phosphorylation of Recombinant Human NF-kappaB-Inducing Kinase (NIK/MAP3K14) Activity (AlphaScreen®)
NIK/MAP3K14 auto-phosphorylation activity was measured using the AlphaScreen® (αscreen) format (Perkin Elmer). All compounds tested were dissolved in dimethyl sulfoxide (DMSO) and further dilutions were made in assay buffer. Final DMSO concentration was 1% (v/v) in assays. Assay buffer was 50 mM Tris pH 7.5 containing 1 mM EGTA (ethylene glycol tetraacetic acid), 1 mM DTT (dithiothreitol), 0.1 mM Na3VO4, 5 mM MgCl2, 0.01% Tween® 20. Assays were carried out in 384 well Alphaplates (Perkin Elmer). Incubations consisted of compound, 25 microM Adenosine-5′-triphosphate (ATP), and 0.2 nM NIK/MAP3K14. Incubations were initiated by addition of GST-tagged NIK/MAP3K14 enzyme, carried out for 1 h at 25° C. and terminated by addition of stop buffer containing anti-phospho-IKK Ser176/180 antibody. Protein A Acceptor and Glutathione-Donor beads were added before reading using an EnVision® Multilabel Plate Reader (Perkin Elmer). Signal obtained in the wells containing blank samples was subtracted from all other wells and IC50's were determined by fitting a sigmoidal curve to % inhibition of control versus Log10 compound concentration.

[3] = tested on: JJN-3 (NIK translocated) multiple myeloma cells; assay: Antiproliferative activity on JJN-3 multiple myeloma cells (CellTiter-Glo, 96 hr), Biological Assay C; format: cell-based, human; settings: JJN-3 (NIK translocated) cells, averaged values, read-out: JJN-3 Proliferation inhibition (IC50 (nM))
Method: as §1, §2, §3

[4] = tested on: P-IKKα levels in L363 (NIK translocated multiple myeloma) cells; assay: Effect of compounds on P-IKKα levels in L363 cells (Mesoscale sandwich immuno-assay), Biological Assay B; format: cell-based, human; settings: 2 hr treatment, averaged values, read-out: Inhibition of pIKKα_L-363 (IC50 (nM))
Method: Effect of Compounds on P-IKKα Levels in L363 (NIK Translocated Multiple Myeloma) Cells
All compounds tested were dissolved in DMSO and further dilutions were made in culture medium. Final DMSO concentration was 1% (v/v) in cell assays. The human L363 cells (ATCC) were cultured in RPMI 1640 medium supplemented with GlutaMax and 10% fetal calf serum (PAA). Cells were routinely maintained at densities of 0.2×10^6 cells per ml-1×10^6 cells per ml at 37° C. in a humidified 5% CO2 atmosphere. Cells were passaged twice a week splitting back to obtain the low density. Cells were seeded in 96 well plates (Nunc 167008) at 2×10^6 per ml media in a volume of 75 μl per well plus 25 μl 1 μg/ml recombinant human B-cell activating factor (BAFF/BLyS/TNFSF13B). Seeded cells were incubated at 37° C. in a humidified 5% CO2 atmosphere for 24 hr. Drugs and/or solvents were added (20 μl) to a final volume of 120 μl. Following 2 hr treatment plates were removed from the incubator and cell lysis was achieved by the addition of 30 μl 5× lysis buffer followed by shaking on a plate shaker at 4° C. for 10 min. At the end of this incubation lysed cells were centrifuged at 800×g for 20 min at 4° C. and the lysate was assessed for P-IKKα levels by sandwich immuno-assay carried out in anti-rabbit antibody coated Mesoscale plates. Within an experiment, the results for each treatment were the mean of 2 replicate wells. For initial screening purposes, compounds were tested using an 8 point dilution curve (serial 1:3 dilutions). For each experiment, controls (containing MG132 and BAFF but no test drug) and a blank incubation (containing MG132 and BAFF and 10 μM ADS125117, a test concentration known to give full inhibition) were run in parallel. The blank incubation value was subtracted from all control and sample values. To determine the IC50 a sigmoidal curve was fitted to the plot of % inhibition of control P-IKKα levels versus Log10 compound concentration.
Note: Compounds 237 and 238 were tested at a maximum top concentration of 823 nM.

| IC50 ([1]; Homo sapiens, KMS-12-BM, 96 h) | IC50 [2] | IC50 ([3]; Homo sapiens, JJN-3, 96 h) | IC50 ([4]; Homo sapiens, L-363, 2 h) | IC50 [1] | IC50 [3] | IC50 [4] | melting point | Compound |
| --- | --- | --- | --- | --- | --- | --- | --- | --- |
| > 10000 nM | 2.3 nM | 272 nM | 7.8 nM |  |  |  |  | Cc1cc(F)c(CO)cc1Nc1nccc(-c2cc(C#N)c3c(c2)[C@@](C)(CO)CN3)n1 [Compound 152] |
| 4900 nM | 4.1 nM | 138 nM | 25.7 nM |  |  |  |  | CC(C)(O)COc1ccc(C#N)cc1Nc1nccc(-c2cc(C#N)c3c(c2)[C@@](C)(CO)CN3)n1 [Compound 12] |
| > 10000 nM | 1.5 nM | 199 nM | 2.9 nM |  |  |  |  | Cc1ccc(CO)cc1Nc1nccc(-c2cc(C#N)c3c(c2)C(C)(CO)CN3)n1 (stereo not shown) [Compound 215] |
| > 10000 nM | 5.8 nM | ~10000 nM | ~1170 nM |  |  |  |  | Cc1ccc(C#N)cc1Nc1nccc(-c2cc(C#N)c3c(c2)[C@](C)(COS(=O)(=O)O)CN3)n1 [Compound 144] |
| 589 nM | 3.6 nM | 12 nM | 33.9 nM |  |  |  |  | CN1CCC(Oc2ccc(Cl)cc2Nc2nccc(-c3cc(C#N)c4c(c3)C(C)(CO)CN4)n2)CC1 (stereo not shown) [Compound 25] |
| > 10000 nM | 3.9 nM | 302 nM | 1.2 nM |  |  |  |  | Cc1ccc(C#N)cc1Nc1ncc(F)c(-c2cc(C#N)c3c(c2)[C@@](C)(CO)CN3)n1 [Compound 147] |
| 1180 nM | 7.1 nM | 35 nM | 93.3 nM |  |  |  |  | CCN1CCN(Cc2cc(OC)c(Nc3nccc(-c4cc(C#N)c5c(c4)C(C)(C)CN5)n3)cc2Cl)CC1 [Compound 87] |
| > 10000 nM | 5.5 nM | 288 nM | 19.5 nM |  |  |  |  | CNC(=O)c1ccc(OC(C)C)c(Nc2nccc(-c3cc(C#N)c4c(c3)[C@@](C)(CO)CN4)n2)c1 [Compound 162] |
|  | 7.8 nM |  |  | > 10000 nM | 89 nM | 12.3 nM |  | CN1CCC(Oc2ccc(C#N)cc2Nc2nccc(-c3cc(C#N)c4c(c3)[C@@](C)(CO)CN4)n2)C(F)C1 (stereo partly shown) [Compound 231] |
| ~7590 nM | 19.1 nM | 251 nM | 12.9 nM |  |  |  |  | COc1cc(CO)c(Cl)cc1Nc1nccc(-c2cc(C#N)c3c(c2)C(C)(C)CN3)n1 [Compound 84] |
|  | 33.1 nM |  | > 10000 nM |  |  |  |  | Cc1ccc(C2CN(C)C2)cc1Nc1nccc(-c2cc(C#N)c3c(c2)[C@@](C)(CO)CN3)n1 [Compound 210] |
| > 10000 nM | 5.1 nM | 195 nM | 7.8 nM |  |  |  |  | CC(=O)NCCCOc1ccc(C#N)cc1Nc1nccc(-c2cc(C#N)c3c(c2)[C@@](C)(CO)CN3)n1 [Compound 181] |
| > 10000 nM | 1.8 nM | 617 nM | 6 nM |  |  |  |  | Cc1cc(F)c(C#N)cc1Nc1nccc(-c2cc(C#N)c3c(c2)[C@@](C)(CO)CN3)n1 [Compound 11] |
|  | 955 nM |  |  |  |  | > 832 nM |  | C[C@]1(CO)CNc2c(C#N)cc(-c3ccnc(Nc4ccccc4C4CCCN4)n3)cc21 (single isomer, unassigned) [Compound 238] |
|  | 31.6 nM |  | 302 nM |  |  |  |  | Cc1ccc(CN2CCOCC2)c(Nc2nccc(-c3cc(C#N)c4c(c3)[C@@](C)(CO)CN4)n2)c1 [Compound 222] |
| 1230 nM | 7.4 nM | 67 nM | 11.5 nM |  |  |  |  | C[C@]1(CO)CNc2c(C#N)cc(-c3ccnc(Nc4cc(C#N)ccc4OC4CC4)n3)cc21 [Compound 10] |
| > 10000 nM | 11.3 nM | 57 nM | 41.7 nM |  |  |  |  | COc1cc(S(C)(=O)=O)c(Cl)cc1Nc1nccc(-c2cc(C#N)c3c(c2)C(C)(C)CN3)n1 [Compound 85] |
| > 10000 nM | 4.7 nM | 523 nM | 8.9 nM |  |  |  |  | [2H]C([2H])(O)c1cc(Nc2nccc(-c3cc(C#N)c4c(c3)[C@@](C)(CO)CN4)n2)c(C)cc1F [Compound 148] |
|  | 10 nM |  | 102 nM |  |  |  |  | Cc1ccc(COC(C)C)cc1Nc1nccc(-c2cc(C#N)c3c(c2)[C@@](C)(CO)CN3)n1 [Compound 149] |
| > 10000 nM | 4.3 nM | ~1700 nM |  |  |  |  | 188 °C | COCCOc1cc(P(C)(C)=O)ccc1Nc1nccc(-c2cc(C#N)c3c(c2)[C@@](C)(CO)CN3)n1 [Compound 67] |
| 1050 nM | 8.5 nM | 14 nM |  |  |  |  | 287 °C | COc1cc(C(=O)N2CC3(CC(O)C3)C2)c(Cl)cc1Nc1nccc(-c2cc(C#N)c3c(c2)C(C)(C)CN3)n1 [Compound 123] |
| 102 nM | 3 nM | 9 nM |  |  |  |  | 190 °C | CC1CN(Cc2ccc(Nc3nccc(-c4cc(C#N)c5c(c4)C(C)(CO)CN5)n3)cc2C(F)(F)F)CC(C)N1C (stereo not shown) [Compound 50] |
|  | 214 nM |  | > 832 nM |  |  |  |  | C[C@]1(CO)CNc2c(C#N)cc(-c3ccnc(Nc4ccccc4C4CCCN4)n3)cc21 (single isomer, unassigned) [Compound 237] |
| > 10000 nM | 49 nM | 363 nM |  |  |  |  | 200 °C | Cc1cc(Br)c(Cl)cc1Nc1nccc(-c2cc(C#N)c3c(c2)C(C)(CO)CN3)n1 (stereo not shown) [Compound 51] |
|  | 17.4 nM |  | 436 nM |  |  |  |  | Cc1ccc(C#N)cc1Nc1nccc(-c2cc(C#N)c3c(c2)[C@@](C)(COC(=O)CN2CCN(C)CC2)CN3)n1 [Compound 145] |
| > 10000 nM | 41.7 nM | 676 nM |  |  |  |  | 217 °C | CC1(CO)CNc2c(C#N)cc(-c3ccnc(Nc4cc(Cl)ccc4OC(F)(F)F)n3)cc21 (stereo not shown) [Compound 52] |
| 1100 nM | 3.2 nM | 39 nM |  |  |  |  | 240 °C | Cc1cc(C(=O)NCC2COC2)c(F)cc1Nc1nccc(-c2cc(C#N)c3c(c2)[C@@](C)(CO)CN3)n1 [Compound 187] |

| Compound | IC50 ([1]; Homo sapiens, KMS-12-BM, 96 h) | IC50 [2] | IC50 ([3]; Homo sapiens, JJN-3, 96 h) | IC50 ([4]; Homo sapiens, L-363, 2 h) | IC50 [1] | IC50 [3] | IC50 [4] | melting point |
| --- | --- | --- | --- | --- | --- | --- | --- | --- |
| CC(C)N1CCN(C(=O)Cc2ccc(Cl)cc2Nc2nccc(-c3cc(C#N)c4c(c3)C(C)(CO)CN4)n2)CC1 (stereo not shown) [Compound 55] | > 10000 nM | 15.5 nM | 282 nM |  |  |  |  | 135 °C |

From US11180487B2, “Substituted cyanoindoline derivatives as NIK inhibitors” (Janssen Pharmaceutica NV, priority 2016, dated 2021)
